Data on 47 molecules can be found in patent US12398125B2, “Nitrogen-containing saturated heterocyclyl derivative” (Sumitomo Pharma Co., Ltd., priority 2022, dated 2025).

Where a name gives a salt, the structure may show the parent alone.

The test system of this assay is α-synuclein aggregate in neurospheroid prepared from human iPS cells with a mutation in PLA2G6 gene. Description: Test 2: suppressing the accumulation of α-synuclein aggregate with neurospheroid. Conditions: 120 h, DMSO = 100%, compound added day 4, measured day 9 after induction of differentiation; for activity at 0.1 µM: 100 nM, read-out: Amount of aggregate (%) 100 nM; for activity at 1 µM: 1000 nM, read-out: Amount of aggregate (%) 1000 nM. The assay is classed as cell-based. On the procedure:
Test 2: Evaluation of Suppressing the Accumulation of α-Synuclein Aggregate with Neurospheroid Prepared from Human iPS Cells with a Mutation in PLA2G6 Gene
(1) Induction of Differentiation from Human iPS Cell to Neural Cell
Neural stem cells were induced from PLA2G6 gene mutant iPS cells with PSC Neuronal Induction Medium (Thermo Fisher Scientific Inc., cat #A1647801). Neurospheroid was prepared from the induced neural stem cells by three-dimensional culture system, and preserved with BrainPhys Neuronal Medium (STEMCELL Technologies, cat #ST-05793) comprising NeuroCult SM1 Neuronal Supplement, N2 Supplement-A, 20 ng/mL BDNF, 20 ng/mL GDNF, 1 mM dibutyryl cAMP, and 200 nM ascorbic acid. Half of the culture medium was replaced on day 2 and day 4 after the induction of differentiation.
The test compound was diluted with the culture medium so as to be twice the final concentration, and an equal volume of the twice-concentrated solution was added to each well when half of the culture medium was replaced on day 4 after induction of differentiation.
(2) Evaluation of the Amount of α-Synuclein Aggregate
From the neurospheroid 9 days after the induction of differentiation, proteins were extracted with a TBS solution containing 1% TritionX-100, and the extracted proteins were subjected to a protein analysis with Simple Western system (Protein Simple, Inc., cat #SM-W008) using an α-synuclein antibody (Thermo Fisher Scientific Inc., cat #AHB0261) to measure the amount of the α-synuclein aggregate.
Assuming that the amount of the aggregate in the neurospheroid added with a DMSO solution is 100%, the amount of the aggregate in the neurospheroid added with each test compound was evaluated.

With `CC1(C(=O)N2CCC(c3cnccc3C(F)(F)F)CC2)COC1` [Example 3, (3-methyloxetan-3-yl){4-[4-(trifluoromethyl)pyridin-3-yl]piperidin-1-yl}methanone], the activity at 0.1 µM turned out to be 6% and the activity at 1 µM is 10%.

Consider `CC1(C(=O)N2CCC(c3cccnc3C(F)(F)F)CC2)COC1` [Example 4, (3-methyloxetan-3-yl){4-[2-(trifluoromethyl)pyridin-3-yl]piperidin-1-yl}methanone], for which the activity at 0.1 µM amounted to 30% and the activity at 1 µM is 29%.

For `CCC1(C(=O)N2CCC(c3cncc(C(F)(F)F)c3)CC2)COC1` [Example 6], the activity at 0.1 µM was 97% and the activity at 1 µM was 81%.

Take `CCC1(C(=O)N2CCC(c3cccnc3C(F)(F)F)CC2)COC1` [Example 7]: the activity at 0.1 µM was 23% and the activity at 1 µM was determined as 52%.

Take `CCC1(C(=O)N2CCC(c3cnccc3C(F)(F)F)CC2)COC1` [Example 8]: the activity at 0.1 µM was 7% and the activity at 1 µM was 13%.

With `CCC1(C(=O)N2CCC(c3ccc(C(F)(F)F)cn3)CC2)COC1` [Example 10], the activity at 0.1 µM stood at 25% and the activity at 1 µM was 29%.

For `CC1(C(=O)N2CCCC(c3ccc(C(F)(F)F)nc3)C2)COC1` (stereo not shown) [Example 11], the activity at 0.1 µM was 3% and the activity at 1 µM was 97%.

For `CCC1(C(=O)N2CCCC(c3ccc(C(F)(F)F)nc3)C2)COC1` (stereo not shown) [Example 12], the activity at 0.1 µM is 35% and the activity at 1 µM was determined as 12%.

`CC1(C(=O)N2CC(c3ccc(C(F)(F)F)nc3)C2)COC1` [Example 13]: the activity at 0.1 µM was found to be 11% and the activity at 1 µM was determined as 7%.

On to `CC1(C(=O)N2CCC(c3ccc(C(F)(F)F)nc3)C2)COC1` (stereo not shown) [Example 14], for which the activity at 0.1 µM was 37% and the activity at 1 µM was 22%.

As for `CCC1(C(=O)N2CCC(c3ccc(C(F)(F)F)nc3)C2)COC1` (stereo not shown) [Example 15], the activity at 0.1 µM is 23% and the activity at 1 µM was found to be 48%.

Take `C[C@H]1C[C@@H](c2ccc(C(F)(F)F)nc2)CCN1C(=O)C1(C)COC1` [Example 16]: the activity at 0.1 µM is 26% and the activity at 1 µM was determined as 106%.

With `C[C@H]1C[C@H](c2ccc(C(F)(F)F)nc2)CCN1C(=O)C1(C)COC1` [Example 17], the activity at 0.1 µM is 28% and the activity at 1 µM was determined as 40%.

As to `CCC1(C(=O)N2CC[C@H](c3ccc(C(F)(F)F)nc3)C[C@@H]2C)COC1` [Example 18], the activity at 0.1 µM came out at 81% and the activity at 1 µM amounted to 80%.

Turning to `CCC1(C(=O)N2CC[C@@H](c3ccc(C(F)(F)F)nc3)C[C@@H]2C)COC1` [Example 19], the activity at 0.1 µM was found to be 5% and the activity at 1 µM is 18%.

Take `CC1(C(=O)N2CCC(O)(c3ccc(C(F)(F)F)nc3)CC2)COC1` [Example 20]: the activity at 0.1 µM worked out at 2% and the activity at 1 µM came out at 91%.

As to `CC1(C(=O)N2CCC(F)(c3ccc(C(F)(F)F)nc3)CC2)COC1` [Example 21], the activity at 0.1 µM came to 73% and the activity at 1 µM amounted to 77%.

In the case of `O=C(C1CCOCC1)N1CCC(c2ccc(C(F)(F)F)nc2)CC1` [Example 22], the activity at 0.1 µM was 24% and the activity at 1 µM is 50%.

For `CC1(C(=O)N2CCC(c3ccc(C(F)(F)F)nc3)CC2)CCOCC1` [Example 23], the activity at 0.1 µM amounted to 23% and the activity at 1 µM was determined as 49%.

As for `O=C(C1CCOC1)N1CCC(c2ccc(C(F)(F)F)nc2)CC1` (stereo not shown) [Example 24], the activity at 0.1 µM came to 46% and the activity at 1 µM was 39%.

As for `O=C([C@H]1CCOC1)N1CCC(c2ccc(C(F)(F)F)nc2)CC1` [Example 25], the activity at 0.1 µM was 80% and the activity at 1 µM came to 71%.

As for `O=C([C@@H]1CCOC1)N1CCC(c2ccc(C(F)(F)F)nc2)CC1` [Example 26], the activity at 0.1 µM is 26% and the activity at 1 µM amounted to 33%.

Consider `O=C([C@H]1CCCO1)N1CCC(c2ccc(C(F)(F)F)nc2)CC1` [Example 27], for which the activity at 0.1 µM came out at 5% and the activity at 1 µM is 29%.

For `O=C([C@@H]1CCCO1)N1CCC(c2ccc(C(F)(F)F)nc2)CC1` [Example 28], the activity at 0.1 µM amounted to 23% and the activity at 1 µM was determined as 63%.

For the molecule `CCC1(C(=O)N2CCC(c3cnc(C(F)(F)F)c(F)c3)CC2)COC1` [Example 30], the activity at 0.1 µM came to 16% and the activity at 1 µM worked out at 56%.

Turning to `Cc1cc(C(F)(F)F)ncc1C1CCN(C(=O)C2(C)COC2)CC1` [Example 31, (3-methyloxetan-3-yl){4-[4-methyl-6-(trifluoromethyl)pyridin-3-yl]piperidin-1-yl}methanone], the activity at 0.1 µM stood at 14% and the activity at 1 µM was found to be 1%.

In the case of `CC1(C(=O)N2CCC(c3ccc(C(F)(F)F)nc3)CC2)CNC1` [Example 33, (3-Methylazetidin-3-yl){4-[6-(trifluoromethyl)pyridin-3-yl]piperidin-1-yl}methanone], the activity at 0.1 µM was found to be 22% and the activity at 1 µM was found to be 22%.

As for `CC1(C(=O)N2CCC(c3cccnc3C(F)(F)F)CC2)CNC1` [Example 34], the activity at 0.1 µM was found to be 43% and the activity at 1 µM was found to be 127%.

Take `CC1(C(=O)N2CCC(c3cncc(C(F)(F)F)c3)CC2)CNC1` [Example 36]: the activity at 0.1 µM was 78% and the activity at 1 µM was found to be 81%.

Take `CC1(C(=O)N2CCC(c3ccc(C(F)(F)F)cn3)CC2)CNC1` [Example 37]: the activity at 0.1 µM is 13% and the activity at 1 µM came out at 106%.

In the case of `CC1(C(=O)N2CCCC(c3ccc(C(F)(F)F)nc3)C2)CNC1` (stereo not shown) [Example 38], the activity at 0.1 µM came out at 6% and the activity at 1 µM worked out at 4%.

Take `CC1(C(=O)N2CCC(c3ccc(C(F)(F)F)nc3)C2)CNC1` (stereo not shown) [Example 39]: the activity at 0.1 µM is 92% and the activity at 1 µM was found to be 70%.

As to `O=C(C1CCNCC1)N1CCC(c2ccc(C(F)(F)F)nc2)CC1` [Example 40], the activity at 0.1 µM is 29% and the activity at 1 µM was found to be 8%.

Take `CN1CC(C)(C(=O)N2CCC(c3ccc(C(F)(F)F)nc3)CC2)C1` [Example 41, (1,3-Dimethylazetidin-3-yl){4-[6-(trifluoromethyl)pyridin-3-yl]piperidin-1-yl}methanone hydrochloride]: the activity at 0.1 µM turned out to be 57% and the activity at 1 µM came to 70%.

Take `CN1CC(C)(C(=O)N2CCC(c3cnccc3C(F)(F)F)CC2)C1` [Example 43, (1,3-dimethylazetidin-3-yl){4-[4-(trifluoromethyl)pyridin-3-yl]piperidin-1-yl}methanone]: the activity at 0.1 µM was determined as 9% and the activity at 1 µM was determined as 11%.

As to `CN1CC(C)(C(=O)N2CCCC(c3ccc(C(F)(F)F)nc3)C2)C1` (stereo not shown) [Example 46], the activity at 0.1 µM is 38% and the activity at 1 µM is 25%.

With `CN1CC(C)(C(=O)N2CCC(c3ccc(C(F)(F)F)nc3)C2)C1` (stereo not shown) [Example 47], the activity at 0.1 µM was 1% and the activity at 1 µM was 55%.

For the molecule `CN1CCC(C(=O)N2CCC(c3ccc(C(F)(F)F)nc3)CC2)CC1` [Example 48], the activity at 0.1 µM was found to be 16% and the activity at 1 µM came out at 21%.

Turning to `O=C(N1CCOCC1)N1CCC(c2ccc(C(F)(F)F)nc2)CC1` [Example 49, (Morpholin-4-yl){4-[6-(trifluoromethyl)pyridin-3-yl]piperidin-1-yl}methanone], the activity at 0.1 µM came out at 13% and the activity at 1 µM amounted to 18%.

`O=C(C1COC1)N1CCC(c2ccc(C(F)(F)F)nc2)CC1` [Example 50]: the activity at 0.1 µM was found to be 86% and the activity at 1 µM came out at 101%.

Regarding `CC1(C)CC(C(=O)N2CCC(c3ccc(C(F)(F)F)nc3)CC2)CCO1` (stereo not shown) [Example 51], the activity at 0.1 µM came out at 100% and the activity at 1 µM amounted to 87%.

Consider `CC1(C(=O)N2CCC(c3ccnc(C(F)(F)F)c3)CC2)COC1` [Example 52], for which the activity at 0.1 µM is 36% and the activity at 1 µM was 100%.

On to `CC1(C(=O)N2CCC(c3ccncc3C(F)(F)F)CC2)COC1` [Example 53], for which the activity at 0.1 µM came out at 106% and the activity at 1 µM amounted to 82%.

With `CC1(C(=O)N2CCC(c3ccc(Cl)nc3)CC2)COC1` [Example 54], the activity at 0.1 µM came to 63% and the activity at 1 µM amounted to 35%.

On to `Cc1ccc(C2CCN(C(=O)C3(C)COC3)CC2)cn1` [Example 55], for which the activity at 0.1 µM is 75% and the activity at 1 µM turned out to be 45%.

For the molecule `CC(C)c1ccc(C2CCN(C(=O)C3(C)COC3)CC2)cn1` [Example 56], the activity at 0.1 µM worked out at 30% and the activity at 1 µM came out at 71%.

Take `CC1(C(=O)N2CCC(c3ccc(C(F)(F)F)nn3)CC2)COC1` [Example 57]: the activity at 0.1 µM is 88% and the activity at 1 µM was determined as 50%.
